Columns and labels:
Type in all cases: toxicity, cell-based
HEK-293T = assay: Incucyte cell viability with HEK293T; conditions: human, 10 µM, compound concentration 10 uM
Fibroblast = assay: Incucyte cell viability with human fibroblast; conditions: 10 µM, compound concentration 10 uM
U2OS = assay: Incucyte cell viability with U2OS; conditions: human, 10 µM, compound concentration 10 uM
Further: unitless GR value; below 1 slowed growth and below 0 cell loss.

SMILES	Growth Rate (HEK-293T; 6 h, replicate number 1)	Growth Rate (HEK-293T; 6 h, replicate number 2)	Growth Rate (HEK-293T; 12 h, replicate number 1)	Growth Rate (HEK-293T; 12 h, replicate number 2)	Growth Rate (HEK-293T; 18 h, replicate number 1)	Growth Rate (HEK-293T; 18 h, replicate number 2)	Growth Rate (HEK-293T; 24 h, replicate number 1)	Growth Rate (HEK-293T; 24 h, replicate number 2)	Growth Rate (Fibroblast; 0 h, replicate number 2)	Growth Rate (Fibroblast; 6 h, replicate number 2)	Growth Rate (Fibroblast; 12 h, replicate number 2)	Growth Rate (Fibroblast; 18 h, replicate number 2)	Growth Rate (Fibroblast; 24 h, replicate number 2)	Growth Rate (U2OS; 12 h, replicate number 1)	Growth Rate (U2OS; 12 h, replicate number 2)	Growth Rate (U2OS; 18 h, replicate number 1)	Growth Rate (U2OS; 18 h, replicate number 2)	Growth Rate (U2OS; 24 h, replicate number 1)	Growth Rate (U2OS; 24 h, replicate number 2)	Growth Rate (U2OS; 6 h, replicate number 1)	other results
CC(C)c1cnn2c(NCc3ccccc3)cc(NCCCCCCN)nc12.Cl	-0.19	-0.03	0.25	0.46	0.64	0.6	0.65	0.66	-0.08	0.27	0.65	0.69	0.87	0.99	0.78	0.92	0.76	0.87	0.71		Growth Rate (Fibroblast; 6 h, replicate number 1): 0.36; Growth Rate (Fibroblast; 12 h, replicate number 1): 0.36; Growth Rate (Fibroblast; 18 h, replicate number 1): 0.9; Growth Rate (Fibroblast; 24 h, replicate number 1): 1; Growth Rate (U2OS; 0 h, replicate number 2): 0.64; Growth Rate (U2OS; 6 h, replicate number 2): 0.69
Cc1cc(-c2nc(-c3ccc(OC(F)(F)F)cc3)no2)nn1Cc1ccnc(N2CCN(C3CC3)CC2)c1	0.47	-0.22	0.32	0.08	0.25	0.18	0.37	0.3			0.36	0.2	0.5	0.94	0.51		0.61	0.88	0.71		Growth Rate (Fibroblast; 0 h, replicate number 1): -1; Growth Rate (Fibroblast; 6 h, replicate number 1): 0.9; Growth Rate (Fibroblast; 12 h, replicate number 1): 0.3; Growth Rate (Fibroblast; 18 h, replicate number 1): 0.22; Growth Rate (Fibroblast; 24 h, replicate number 1): 0.26
CCN1CCN(Cc2ccc(NC(=O)c3ccc(C)c(NC(=O)c4cncc(-c5cccs5)c4)c3)cc2C(F)(F)F)CC1	-0.97	-0.99	-0.9	-0.83	-0.73	-0.61	-0.6	-0.41	-0.99	-1	-0.76	-0.54	-0.41	-0.52	-0.42	-0.59	-0.53	-0.6	-0.55	-0.87	Growth Rate (Fibroblast; 18 h, replicate number 1): -0.92; Growth Rate (Fibroblast; 24 h, replicate number 1): -0.74; Growth Rate (U2OS; 0 h, replicate number 1): -0.74; Growth Rate (U2OS; 0 h, replicate number 2): -0.23; Growth Rate (U2OS; 6 h, replicate number 2): -0.47
O=C1NC(=Nc2c(Cl)cccc2Cl)S/C1=C\c1ccc2nccnc2c1	0.02		0.48	0.26	0.44	0.35	0.52	0.45		0.92	0.96				0.38	0.81	0.64	0.8	0.75	0.4	Growth Rate (HEK-293T; 0 h, replicate number 1): 0.08; Growth Rate (HEK-293T; 0 h, replicate number 2): 0.44; Growth Rate (Fibroblast; 0 h, replicate number 1): 0.49; Growth Rate (U2OS; 0 h, replicate number 1): 0.01; Growth Rate (U2OS; 6 h, replicate number 2): 0.31
N=C(N)NCCC[C@@H](NC(=O)C(c1ccccc1)c1ccccc1)C(=O)NCc1ccc(CNC(N)=O)cc1.O=C(O)C(F)(F)F				0.76		0.96		0.9	0.49		0.86	0.94	0.91	0.7	0.87	0.92	0.99	0.86		0.44	Growth Rate (HEK-293T; 0 h, replicate number 1): 0.56; Growth Rate (Fibroblast; 0 h, replicate number 1): -1; Growth Rate (Fibroblast; 6 h, replicate number 1): 0.82; Growth Rate (U2OS; 0 h, replicate number 1): 0.07
C=CC[C@@H]1/C=C(\C)C[C@H](C)C[C@H](OC)[C@H]2O[C@@](O)(C(=O)C(=O)N3CCCC[C@H]3C(=O)O[C@H](/C(C)=C/[C@@H]3CC[C@@H](O)[C@H](OC)C3)[C@H](C)[C@@H](O)CC1=O)[C@H](C)C[C@@H]2OC.O [TACROLIMUS]	-0.24	0.77	0.41	0.99	0.78	0.82	0.87	0.99	-0.85	-0.26	0.85			0.75	0.7	0.81	0.87		0.85	0.95	Growth Rate (HEK-293T; 0 h, replicate number 2): -0.12; Growth Rate (Fibroblast; 18 h, replicate number 1): 0.96; Growth Rate (U2OS; 0 h, replicate number 1): 0.59; Growth Rate (U2OS; 0 h, replicate number 2): -1; Growth Rate (U2OS; 6 h, replicate number 2): 0.5
COc1cccc(CNc2ccc(S(=O)(=O)Nc3nc4ccccc4s3)cc2)c1O [VLX-1005]					0.96					0.25	0.76	0.84	0.84	0.89				0.99		0.62	Growth Rate (HEK-293T; 0 h, replicate number 1): 0.18; Growth Rate (Fibroblast; 24 h, replicate number 1): 1
Cc1cc(OCc2nc3ccccc3s2)ccc1NC(=O)Nc1ccc(Cl)c(Cl)c1				0.92					-0.81		0.94	0.94	0.92				0.98				Growth Rate (HEK-293T; 0 h, replicate number 1): 0.1; Growth Rate (HEK-293T; 0 h, replicate number 2): -0.01; Growth Rate (Fibroblast; 0 h, replicate number 1): -1
CC[C@H](Nc1c(C#N)c(-c2ccc(-c3cccc(C)c3F)cc2)nc2cnccc12)C(=O)O [BAY-0361]	0.67	0.74	0.79	0.98	0.91	0.94	0.92	0.98		0.85	0.93		0.84	0.56		0.74		0.91		0.1	Growth Rate (HEK-293T; 0 h, replicate number 2): 0.79; Growth Rate (Fibroblast; 6 h, replicate number 1): 0.67; Growth Rate (Fibroblast; 12 h, replicate number 1): 0.65; Growth Rate (Fibroblast; 18 h, replicate number 1): 0.75; Growth Rate (Fibroblast; 24 h, replicate number 1): 0.8
CCNCCNC(=O)c1c(C)[nH]c(/C=C2\C(=O)Nc3ccc(F)cc32)c1C	-0.62	-0.16	-0.52	-0.09	-0.32	0.09	-0.09	0.21			0.44	0.18	0.1			0.78	0.77	0.69	0.7		Growth Rate (Fibroblast; 6 h, replicate number 1): -0.96; Growth Rate (Fibroblast; 12 h, replicate number 1): -1; Growth Rate (U2OS; 0 h, replicate number 2): -0.6

Source: ChEMBL document CHEMBL5303304, “EUbOPEN Chemogenomics Library - IncuCyte” (2023)
